What is called Ki is a measure of affinity in units of concentration, obtained from inhibition or displacement. Broadly, the EC50 is the concentration at which the effect is half-maximal. One may read the Emax as the size of the effect at its maximum, as opposed to the concentration needed.

For assay [1], the target named is T1, μ-opioid receptor (Homo sapiens (Human), UniProt P35372). Kind of assay: μ-opioid receptor radioligand ([3H]-diprenorphine) dose-displacement binding assay. To be noted: binding affinity. How it is done:
μ-Opioid Receptor Binding Assay Procedures: Radioligand dose-displacement binding assays for μ-opioid receptors used 0.3 nM [^3H]-diprenorphine (Perkin Elmer, Shelton, Conn.), with […] membrane protein/well in a final volume of 500 μl binding buffer (10 mM MgCl2, 1 mM EDTA, 5% DMSO, 50 mM HEPES, pH 7.4). Reactions were carried out in the absence or presence of increasing concentrations of unlabeled naloxone. All reactions were conducted in 96-deep well polypropylene plates for 2 hours at room temperature. Binding reactions were terminated by rapid filtration onto 96-well Unifilter GF/C filter plates (Perkin Elmer, Shelton, Conn.), presoaked in 0.5% polyethylenimine using a 96-well tissue harvester (Perkin Elmer, Shelton, Conn.) followed by performing three filtration washes with 500 μl of ice-cold binding buffer. Filter plates were subsequently dried at 50° C. for 2-3 hours. BetaScint scintillation cocktail (Perkin Elmer, Shelton, Conn.) was added (50 μl/well), and plates were counted using a Packard Top-Count for 1 min/well. The data were analyzed using the one-site competition curve fitting functions in GraphPad PRISM™ v. 3.0 or higher (San Diego, Calif.), or an in-house function for one-site competition curve-fitting.
(§1) In TABLE 1, binding affinity of certain Compounds of the Invention to the μ-, δ- and κ-opioid receptors was determined as described above.

For assay [2], the target named is T2, κ opioid receptor (Homo sapiens (Human), UniProt P41145). Kind of assay: κ-opioid receptor radioligand ([3H]-U69,593) dose-displacement binding assay. To be noted: binding affinity. How it is done:
κ-Opioid Receptor Binding Assay Procedures: Membranes from recombinantHEK-293 cells, CHO or U-2 OS cells expressing the recombinant human κ opioid receptor (κ) were prepared by lysing cells in ice cold hypotonic buffer (2.5 mM MgCl2, 50 mM HEPES, pH 7.4) (10 mL/10 cm dish) followed by homogenization with a tissue grinder/Teflon pestle. Membranes were collected by centrifugation at 30,000×g for 15 min at 4° C. and pellets were resuspended in hypotonic buffer to a final concentration of 1-3 mg/mL. Protein concentrations were determined using the BioRad protein assay reagent with bovine serum albumen as standard. Aliquots of κ receptor membranes were stored at −80° C.
Radioligand dose displacement assays used 0.4 nM [^3H]-U69,593 (GE Healthcare, Piscataway, N.J.; 40 Ci/mmole) with 15 μg membrane protein (recombinant κ opioid receptor expressed in HEK 293 cells; in-house prep) in a final volume of 200 μl binding buffer (5% DMSO, 50 mM Trizma base, pH 7.4). Non-specific binding was determined in the presence of 10 μM unlabeled naloxone or U69,593. All reactions were performed in 96-well polypropylene plates for 1 hour at a temperature of about 25° C. Binding reactions were terminated by rapid filtration onto 96-well Unifilter GF/C filter plates (Perkin Elmer, Shelton, Conn.) presoaked in 0.5% polyethylenimine (Sigma). Harvesting was performed using a 96-well tissue harvester (Perkin Elmer, Shelton, Conn.) followed by five filtration washes with 200 μl ice-cold binding buffer. Filter plates were subsequently dried at 50° C. for 1-2 hours. Fifty μl/well scintillation cocktail (Perkin Elmer, Shelton, Conn.) was added and plates were counted in a Packard Top-Count for 1 min/well.
as §1

The target in assay [3] is T1, μ-opioid receptor. Kind of assay: μ-opioid receptor [35S]GTPγS functional assay, HEK-293 or CHO cells. In kind it is biochemical. The procedure:
μ-Opioid Receptor Functional Assay Procedures: [^35S]GTPγS functional assays were conducted using freshly thawed μ-receptor membranes prepared in-house from a cell line expressing recombinant μ opioid receptor in a HEK-293, CHO or U-2 OS cell background, or purchased from a commercial source (Perkin Elmer, Shelton, Conn.; or DiscovRx, Fremont, Calif.). Assay reactions were prepared by sequentially adding the following reagents to binding buffer (100 mM NaCl, 10 mM MgCl2, 20 mM HEPES, pH 7.4) on ice (final concentrations indicated): membrane protein (0.026 mg/mL), saponin ([…]), GDP ([…]) and [^35S]GTPγS (0.20 nM; Perkin Elmer, Shelton, Conn.). The prepared membrane solution (190 μl/well) was transferred to 96-shallow well polypropylene plates containing 10 μl of 20× concentrated stock solutions of the agonist [D-Ala^2, N-methyl-Phe^4 Gly-ol^5]-enkephalin (DAMGO) prepared in dimethyl sulfoxide (DMSO). Plates were incubated for 30 min at about 25° C. with shaking. Reactions were terminated by rapid filtration onto 96-well Unifilter GF/B filter plates (Perkin Elmer, Shelton, Conn.) using a 96-well tissue harvester (Perkin Elmer, Shelton, Conn.) followed by three filtration washes with 200 μl of ice-cold wash buffer (10 mM NaH2PO4, 10 mM Na2HPO4, pH 7.4). Filter plates were subsequently dried at 50° C. for 2-3 hours. BetaScint scintillation cocktail (Perkin Elmer, Shelton, Conn.) was added (50 μl/well) and plates were counted using a Packard Top-Count for 1 min/well. Data were analyzed using the sigmoidal dose-response curve fitting functions in GraphPad PRISM v. 3.0, or an in-house function for non-linear, sigmoidal dose-response curve-fitting.
μ-Opioid Receptor Functional Data: μ GTP EC50 is the concentration of a compound providing 50% of the maximal response for the compound at a μ-opioid receptor.
μ GTP Emax (%) is the maximal effect elicited by a compound relative to the effect elicited by DAMGO, a standard μ agonist. Generally, the μ GTP Emax (%) value measures the efficacy of a compound to treat or prevent pain or other Conditions.
(§2) In TABLE 2, activity response of certain Compounds of the Invention to the μ-, δ- and κ-opioid receptors was determined as described above for functional assays using HEK-293 or CHO cells.
For orientation: GTPγS is a poorly hydrolysed GTP analogue; its binding reports G protein activation.

Assay [4] addresses T2, κ opioid receptor. Kind of assay: κ-opioid receptor [35S]GTPγS functional assay, HEK-293 or CHO cells. In kind it is biochemical. The procedure:
κ-Opioid Receptor Functional Assay Procedures: Functional [^35S]GTPγS binding assays were conducted as follows. κ opioid receptor membrane solution was prepared by sequentially adding final concentrations of 0.026 μg/μl κ membrane protein (in-house), 10 μg/mL saponin, 3 μM GDP and 0.20 nM [^35S]GTPγS to binding buffer (100 mM NaCl, 10 mM MgCl2, 20 mM HEPES, pH 7.4) on ice. The prepared membrane solution (190 μl/well) was transferred to 96-shallow well polypropylene plates containing 10 μl of 20× concentrated stock solutions of agonist prepared in DMSO. Plates were incubated for 30 min at a temperature of about 25° C. with shaking. Reactions were terminated by rapid filtration onto 96-well Unifilter GF/B filter plates (Perkin Elmer, Shelton, Conn.) using a 96-well tissue harvester (Packard) and followed by three filtration washes with 200 μl ice-cold binding buffer (10 mM NaH2PO4, 10 mM Na2HPO4, pH 7.4). Filter plates were subsequently dried at 50° C. for 2-3 hours. Fifty μl/well scintillation cocktail (Perkin Elmer, Shelton, Conn.) was added and plates were counted in a Packard Top-Count for 1 min/well.
κ-Opioid Receptor Functional Data: κ GTP EC50 is the concentration of a compound providing 50% of the maximal response for the compound at a κ receptor.
κ GTP Emax (%) is the maximal effect elicited by a compound relative to the effect elicited by U69,593.
as §2

The target of assay [5] is T1, μ-opioid receptor. Description: μ-opioid receptor [35S]GTPγS functional assay, U-2 OS cells. It counts as biochemical. To be noted: for Emax: relative to DAMGO, U-2 OS cells.
In assay [6] the target is T2, κ opioid receptor. Description: κ-opioid receptor [35S]GTPγS functional assay, U-2 OS cells. In kind it is biochemical. To be noted: for Emax: relative to U69,593, U-2 OS cells.
The mark [7] stands for this setting: read-out: Opioid Receptor Ki (nM) μ.
The mark [8] stands for this setting: bound given in μM, read-out: Opioid Receptor Ki κ.
Setting [9] is: relative to DAMGO, HEK-293 or CHO cells.
Where [10] appears, read: relative to U69,593, HEK-293 or CHO cells.
Where [11] appears, read: read-out: Opioid Receptor Ki (nM) κ.

Like-named read-outs stand apart in the source and are kept apart here. Bounds are passed on as bounds.

For the compound `COc1ccc2c(c1)[C@]13CCN[C@H](C2)[C@]1(O)CC[C@@]1(C3)NC(=O)NC1=O` [Compound 12, (4bR,4′S,8aS,9R)-8a-hydroxy-3-methoxy-5,7,8,8a,9,10-hexahydrospiro[9,4b-(epiminoethano)phenanthrene-6,4′-imidazolidine]-2′,5′-dione], the Ki in assay [1] (setting [7]) is 14900 nM; in assay [2] (setting [8]), > 20 µM.

As for `COc1ccc2c(c1)[C@]13CCN(Cc4ccccc4)[C@H](C2)[C@]1(O)CC[C@@]1(C3)NC(=O)NC1=O` [Compound 11, (4bR,4′S,8aS,9R)-11-benzyl-8a-hydroxy-3-methoxy-5,7,8,8a,9,10-hexahydrospiro[9,4b-(epiminoethano)phenanthrene-6,4′-imidazolidine]-2′,5′-dione], the Ki is > 20000 nM in assay [1] (bound given in μM, read-out: Opioid Receptor Ki μ) and > 20 µM in assay [2] (setting [8]).

As to `COc1ccc2c(c1)[C@]13CCN(CC4CC4)[C@H](C2)[C@]1(O)CC[C@@]1(CNC(=O)N1)C3` [Compound 4, (4bR,4′S,8aS,9R)-11-(cyclopropylmethyl)-8a-hydroxy-3-methoxy-5,7,8,8a,9,10-hexahydrospiro[9,4b-(epiminoethano)phenanthrene-6,4′-imidazolidin]-2′-one], the EC50 in assay [3] came out at 809 ± 143 nM; in assay [4], 901 ± 389 nM. Also, the Emax in assay [3] (setting [9]) is 20.7 ± 0.67%; in assay [4] (setting [10]) it was 44.3 ± 1.45%. Also, the Ki in assay [2] (setting [11]) was 0.135 ± 0.0381 µM.

As for `COc1ccc2c(c1)[C@]13CCN(CC4CC4)[C@H](C2)[C@@H]1CC[C@@]1(C3)NC(=O)NC1=O` [Compound 6, (4bS,4′S,8aR,9R)-11-(cyclopropylmethyl)-3-methoxy-5,7,8,8a,9,10-hexahydrospiro[9,4b-(epiminoethano)phenanthrene-6,4′-imidazolidine]-2′,5′-dione], the figures for the EC50 in assay [3] and in assay [4] were 1460 ± 121 nM and 1230 ± 380 nM, respectively. The maximal effect (Emax) in assay [3] (setting [9]) turned out to be 58.3 ± 5.24%; in assay [4] (setting [10]), 89.7 ± 3.53%. The Ki in assay [2] (setting [11]) was found to be 0.0123 ± 0.00261 µM.

`CN1CC[C@]23C[C@]4(CC[C@@]2(O)[C@H]1Cc1ccc(O)cc13)NC(=O)NC4=O` [Compound 10, (4bR,4′S,8aS,9R)-3,8a-dihydroxy-11-methyl-5,7,8,8a,9,10-hexahydrospiro[9,4b-(epiminoethano)phenanthrene-6,4′-imidazolidine]-2′,5′-dione]: the Ki in assay [1] (setting [7]) is 27 ± 3.07 nM; in assay [2] (setting [11]), 0.155 ± 0.0295 µM.

In the case of `N#CCN1C(=O)NC(=O)[C@@]12CC[C@@]1(O)[C@H]3Cc4ccc(O)cc4[C@@]1(CCN3CC1CC1)C2` [Compound 68, 2-((4bR,4′S,8aS,9R)-11-(cyclopropylmethyl)-3,8a-dihydroxy-2,5-dioxo-5,7,8,8a,9,10-hexahydrospiro[9,4b-(epiminoethano)phenanthrene-6,4′-imidazolidin]-3′-yl)acetonitrile], the concentration for a half-maximal effect (EC50) stood at 5.63 ± 1.74 nM in assay [5] and 7.06 ± 1.53 nM in assay [6]. Also, the Emax was found to be 16 ± 1.15% in assay [5] and 108 ± 6.89% in assay [6].

Consider “(4bS,4′S,8aR,9R)-11-(cyclopropylmethyl)-3-hydroxy-5,7,8,8a,9,10-hexahydrospiro[9,4b-(epiminoethano)phenanthrene-6,4′-imidazolidin]-2′-one [Compound 8]”, for which the EC50 stood at 7.39 ± 1.89 nM in assay [3] (GTPγS, HEK-293 or CHO cells, read-out: Opioid Receptor μ EC50) and 27.2 ± 8.1 nM in assay [4] (GTPγS, HEK-293 or CHO cells, read-out: Opioid Receptor κ EC50). In addition, in assay [3] (setting [9]), the “Opioid Receptor μ Emax (%)” value was 39.67 ± 3.28%. Besides, the “Opioid Receptor κ Emax (%)” value in assay [4] (setting [10]) is 91.33 ± 5.04%. Further, the Ki in assay [2] (setting [11]) stood at 0.0002 ± 5e-05 µM.

On to `O=C1NC(=O)[C@@]2(CC[C@@]3(O)[C@H]4Cc5ccc(O)cc5[C@@]3(CCN4CC3CC3)C2)N1Cc1ccccc1` [Compound 67, (4bR,4′S,8aS,9R)-3′-benzyl-11-(cyclopropylmethyl)-3,8a-dihydroxy-5,7,8,8a,9,10-hexahydrospiro[9,4b-(epiminoethano)phenanthrene-6,4′-imidazolidine]-2′,5′-dione], for which the EC50 in assay [5] stood at 9.38 ± 0.76 nM; in assay [6], 28.4 ± 8.48 nM. Further, the results for the Emax in assay [5] and in assay [6] were 20% and 115 ± 4.84%, respectively.

Consider `O=C1NC(=O)[C@@]2(CC[C@@]3(O)[C@H]4Cc5ccc(O)cc5[C@@]3(CCN4CC(F)(F)F)C2)N1` [Compound 32, (4bR,4′S,8aS,9R)-3,8a-dihydroxy-11-(2,2,2-trifluoroethyl)-5,7,8,8a,9,10-hexahydrospiro[9,4b-(epiminoethano)phenanthrene-6,4′-imidazolidine]-2′,5′-dione], for which the concentration giving a half-maximal response (EC50) in assay [5] was > 20000 nM; in assay [6] it was 523 ± 180 nM. Further, the figures for the Emax in assay [5] and in assay [6] were 1.5% and 104 ± 1.2%, respectively.
